BindingDB's records for doi:10.1016/j.bmcl.2016.03.041 (Eli Lilly, 2016)

Experiments:
[1] = target: T1, Prostaglandin E2 receptor EP3 subtype (Homo sapiens, UniProt P43115); test: Binding affinity to human EP3
T1 sequence (P43115 whole entry): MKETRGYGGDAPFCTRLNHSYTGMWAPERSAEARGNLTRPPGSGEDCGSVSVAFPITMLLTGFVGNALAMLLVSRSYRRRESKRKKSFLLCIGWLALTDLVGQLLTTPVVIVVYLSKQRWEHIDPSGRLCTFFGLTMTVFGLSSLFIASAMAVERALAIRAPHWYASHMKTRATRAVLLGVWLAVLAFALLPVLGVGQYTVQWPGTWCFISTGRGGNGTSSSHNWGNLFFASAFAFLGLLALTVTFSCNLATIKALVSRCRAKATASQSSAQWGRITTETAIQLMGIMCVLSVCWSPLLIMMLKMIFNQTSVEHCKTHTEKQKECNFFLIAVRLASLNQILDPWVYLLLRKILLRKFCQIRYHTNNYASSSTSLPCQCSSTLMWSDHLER

[2] = target: Prostaglandin E2 receptor EP2 subtype (Homo sapiens, UniProt P43116); test: Binding affinity to human EP2
[3] = target: T2, Prostaglandin E2 receptor EP1 subtype (Homo sapiens, UniProt P34995); test: Binding affinity to human EP1
T2 sequence (P34995 whole entry): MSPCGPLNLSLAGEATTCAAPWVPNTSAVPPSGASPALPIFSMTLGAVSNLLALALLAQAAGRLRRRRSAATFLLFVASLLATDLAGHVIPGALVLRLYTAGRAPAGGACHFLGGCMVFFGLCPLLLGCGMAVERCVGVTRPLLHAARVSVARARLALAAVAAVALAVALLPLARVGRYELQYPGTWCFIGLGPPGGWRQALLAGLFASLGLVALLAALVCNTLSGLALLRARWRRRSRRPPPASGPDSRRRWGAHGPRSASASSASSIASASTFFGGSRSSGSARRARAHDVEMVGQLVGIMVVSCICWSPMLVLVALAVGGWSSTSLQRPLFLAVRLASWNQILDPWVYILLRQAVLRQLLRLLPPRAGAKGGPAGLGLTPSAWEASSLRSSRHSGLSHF

Sequence of Prostaglandin E2 receptor EP2 subtype (P43116 whole entry): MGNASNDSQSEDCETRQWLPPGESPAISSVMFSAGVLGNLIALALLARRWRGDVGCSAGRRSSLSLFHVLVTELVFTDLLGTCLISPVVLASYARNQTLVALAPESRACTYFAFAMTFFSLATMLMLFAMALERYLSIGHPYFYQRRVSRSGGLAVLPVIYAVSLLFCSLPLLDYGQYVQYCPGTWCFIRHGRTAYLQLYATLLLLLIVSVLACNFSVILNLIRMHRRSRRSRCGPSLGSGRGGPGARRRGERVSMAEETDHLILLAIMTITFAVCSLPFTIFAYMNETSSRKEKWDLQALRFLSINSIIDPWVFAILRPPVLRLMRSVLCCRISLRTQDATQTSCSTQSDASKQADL

- Ki [1]: > 14 µM
- Ki [2]: > 18.9 µM
- Ki [3]: > 17.5 µM
Structure (SMILES): Cc1ccc(N2CCC(O)CC2)nc1C(=O)Nc1c(C)cc(C(=O)O)cc1C [US8933099, 1]
